In patent US9840503B2, “Heterocyclic compounds and uses thereof” (Incyte Corporation, priority 2015, dated 2017):

Experiments:
Format in all cases: biochemical
c-MER = c-MER (Homo sapiens (Human), UniProt Q12866); test: TAM Enzymatic Assay (HTRF), c-MER; settings: 4.1 nM c-MER, 100 uM ATP, 60 min room temperature
Method: (§1) The assay buffer contained 50 mM HEPES, pH7.5, 10 mM MgCl2, 1 mM EGTA, 0.01% NP-40 and 2 mM DTT. 0.5 ul test compounds dissolved in DMSO were transferred from compound plates to white 384-well assay plates (Greiner […] plates). […] A 1 mM stock solution of peptide substrate Biotin-[…]-amide (Quality Controlled Biochemicals, MA) dissolved in DMSO was diluted to 1 uM in assay buffer containing 100 uM ATP (for AXL and c-MER assays) or 20 uM ATP (for TYRO3 assay). 10 ul enzyme solution (or assay buffer for the enzyme blank) was added to the appropriate wells in each plate, and then 10 ul/well substrate solution was added to initiate the reaction. The plate was protected from light and incubated at room temperature for 60 min. […] The plate was incubated for 1 h at room temperature, and HTRF (homogenous time resolved fluorescence) signal was measured on a PHERAstar FS plate reader (BMG labtech). Percentage of inhibition was calculated for each concentration and IC50 value was generated from curve fitting with GraphPad Prism software.

TYRO3 = TYRO3 (Homo sapiens (Human), UniProt Q06418); test: TAM Enzymatic Assay (HTRF), TYRO3; settings: 0.366 nM TYRO3, 20 uM ATP, 60 min room temperature
Method: as §1

AXL = AXL (Homo sapiens (Human), UniProt P30530); test: TAM Enzymatic Assay (HTRF), AXL; settings: 13.8 nM AXL, 100 uM ATP, 60 min room temperature
Method: as §1

c-MER, sequence (Q12866 21-999): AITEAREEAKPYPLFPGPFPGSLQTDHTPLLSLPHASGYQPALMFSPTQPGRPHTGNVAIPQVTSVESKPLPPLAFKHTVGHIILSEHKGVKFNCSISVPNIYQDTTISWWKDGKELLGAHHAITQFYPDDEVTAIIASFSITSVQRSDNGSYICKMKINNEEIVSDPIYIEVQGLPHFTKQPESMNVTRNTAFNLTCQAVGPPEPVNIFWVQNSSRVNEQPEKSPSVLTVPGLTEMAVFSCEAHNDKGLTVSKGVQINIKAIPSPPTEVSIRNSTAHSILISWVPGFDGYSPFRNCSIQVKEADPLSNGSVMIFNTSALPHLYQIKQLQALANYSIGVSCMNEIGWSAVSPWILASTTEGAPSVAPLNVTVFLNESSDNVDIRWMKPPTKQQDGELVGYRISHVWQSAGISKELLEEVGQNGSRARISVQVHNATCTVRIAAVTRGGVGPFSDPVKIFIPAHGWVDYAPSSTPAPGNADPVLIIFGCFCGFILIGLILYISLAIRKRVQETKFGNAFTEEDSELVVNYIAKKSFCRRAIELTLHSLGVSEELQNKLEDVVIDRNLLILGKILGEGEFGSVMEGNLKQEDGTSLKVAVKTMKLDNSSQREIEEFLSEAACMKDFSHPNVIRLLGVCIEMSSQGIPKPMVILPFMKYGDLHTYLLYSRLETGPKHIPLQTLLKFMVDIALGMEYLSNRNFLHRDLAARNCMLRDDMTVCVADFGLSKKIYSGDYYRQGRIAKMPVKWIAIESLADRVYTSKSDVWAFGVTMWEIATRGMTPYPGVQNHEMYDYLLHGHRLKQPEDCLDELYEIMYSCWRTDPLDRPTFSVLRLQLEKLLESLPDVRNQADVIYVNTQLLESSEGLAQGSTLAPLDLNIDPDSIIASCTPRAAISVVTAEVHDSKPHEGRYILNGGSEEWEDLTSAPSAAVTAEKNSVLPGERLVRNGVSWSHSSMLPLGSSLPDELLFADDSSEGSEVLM
TYRO3, sequence (Q06418 41-890): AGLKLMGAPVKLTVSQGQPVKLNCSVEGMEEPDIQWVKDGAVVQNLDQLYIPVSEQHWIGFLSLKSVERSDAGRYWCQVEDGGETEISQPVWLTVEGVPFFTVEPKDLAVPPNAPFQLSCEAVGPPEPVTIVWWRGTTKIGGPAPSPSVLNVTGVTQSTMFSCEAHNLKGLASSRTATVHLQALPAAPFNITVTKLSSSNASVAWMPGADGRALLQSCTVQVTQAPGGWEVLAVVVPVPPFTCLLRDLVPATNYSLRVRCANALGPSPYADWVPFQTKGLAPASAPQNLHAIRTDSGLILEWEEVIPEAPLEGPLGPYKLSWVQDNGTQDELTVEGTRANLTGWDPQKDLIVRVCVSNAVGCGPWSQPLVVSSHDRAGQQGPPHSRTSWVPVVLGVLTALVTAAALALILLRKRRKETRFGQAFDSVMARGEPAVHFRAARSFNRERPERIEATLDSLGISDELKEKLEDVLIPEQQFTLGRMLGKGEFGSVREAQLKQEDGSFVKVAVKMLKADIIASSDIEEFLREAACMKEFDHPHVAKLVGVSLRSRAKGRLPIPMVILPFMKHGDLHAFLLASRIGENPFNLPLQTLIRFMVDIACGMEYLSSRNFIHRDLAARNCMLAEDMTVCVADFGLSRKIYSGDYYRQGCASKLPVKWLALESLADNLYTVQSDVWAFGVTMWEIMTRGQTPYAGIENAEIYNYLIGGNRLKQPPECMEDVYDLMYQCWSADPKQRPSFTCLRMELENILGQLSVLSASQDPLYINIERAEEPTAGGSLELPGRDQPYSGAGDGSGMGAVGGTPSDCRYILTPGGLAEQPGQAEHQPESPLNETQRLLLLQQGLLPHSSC
AXL, sequence (P30530 26-894): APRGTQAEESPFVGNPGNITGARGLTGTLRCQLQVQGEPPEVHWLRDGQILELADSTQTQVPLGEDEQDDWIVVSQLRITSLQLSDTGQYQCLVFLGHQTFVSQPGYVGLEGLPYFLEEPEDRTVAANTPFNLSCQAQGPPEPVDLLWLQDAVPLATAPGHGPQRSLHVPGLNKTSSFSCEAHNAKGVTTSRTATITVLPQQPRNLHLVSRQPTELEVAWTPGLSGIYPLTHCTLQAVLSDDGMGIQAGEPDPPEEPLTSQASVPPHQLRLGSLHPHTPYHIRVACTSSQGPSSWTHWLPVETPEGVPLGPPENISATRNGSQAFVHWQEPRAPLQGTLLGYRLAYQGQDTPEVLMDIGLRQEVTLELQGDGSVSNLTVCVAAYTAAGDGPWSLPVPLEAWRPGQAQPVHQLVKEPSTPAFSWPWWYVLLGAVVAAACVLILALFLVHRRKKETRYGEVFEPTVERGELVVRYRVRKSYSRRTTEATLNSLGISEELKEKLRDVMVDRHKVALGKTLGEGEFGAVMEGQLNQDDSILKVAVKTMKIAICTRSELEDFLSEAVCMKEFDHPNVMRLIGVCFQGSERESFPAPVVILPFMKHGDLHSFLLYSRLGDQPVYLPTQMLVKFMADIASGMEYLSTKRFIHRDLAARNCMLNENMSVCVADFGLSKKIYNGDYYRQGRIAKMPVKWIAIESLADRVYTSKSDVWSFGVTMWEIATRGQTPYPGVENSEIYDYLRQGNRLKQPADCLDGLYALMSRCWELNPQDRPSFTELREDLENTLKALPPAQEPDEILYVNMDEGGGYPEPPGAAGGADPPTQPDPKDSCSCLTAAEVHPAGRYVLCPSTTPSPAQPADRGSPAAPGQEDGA

Work on CCCCNc1ncc2c3ccc(CNC4CCCCC4)cc3c(=O)n([C@H]3CC[C@H](N)CC3)c2n1 [Example 6, 5-(trans-4-aminocyclohexyl)-3-(butylamino)-8-((cyclohexylamino)methyl)pyrimido[4,5-c]isoquinolin-6(5H)-one] yielded an IC50 (c-MER) of under 0.1 µM and an IC50 (TYRO3) of under 0.1 µM.

Work on CCCCNc1ncc2c3ccc(CNC4CCOCC4)cc3c(=O)n([C@H]3CC[C@H](O)CC3)c2n1 [Example 4, 3-(Butylamino)-5-(trans-4-hydroxycyclohexyl)-8-[(tetrahydro-2H-pyran-4-ylamino)methyl]pyrimido[4,5-c]isoquinolin-6(5H)-one] yielded an IC50 (AXL) of over 1 µM, an IC50 (c-MER) of under 0.1 µM and an IC50 (TYRO3) of 0.1 to 1 µM.

For CCCCNc1ncc2c3ccc(-c4cnn(C)c4)cc3c(=O)n([C@H]3CC[C@H](O)CC3)c2n1 [Example 7, 3-(Butylamino)-5-(trans-4-hydroxycyclohexyl)-8-(1-methyl-1H-pyrazol-4-yl)pyrimido[4,5-c]isoquinolin-6(5H)-one], the IC50 (AXL) was over 1 µM.

CCCCNc1ncc2c(n1)N([C@H]1CC[C@H](O)CC1)Cc1cc(CNC3CCCCC3)ccc1-2 [Example 3, trans-4-[3-(Butylamino)-8-[(cyclohexylamino)methyl]pyrimido[4,5-c]isoquinolin-5(6H)-yl]cyclohexanol] showed an IC50 (AXL) of under 0.1 µM, an IC50 (c-MER) of under 0.1 µM and an IC50 (TYRO3) of under 0.1 µM.

In the case of CCCCNc1ncc2c(n1)N([C@H]1CC[C@H](N)CC1)Cc1cc(CNC3CCCC3)ccc1-2 [Example 11, 5-(trans-4-aminocyclohexyl)-N-butyl-8-((cyclopentylamino)methyl)-5,6-dihydropyrimido[4,5-c]isoquinolin-3-amine], the IC50 (c-MER) is reported as under 0.1 µM and the IC50 (TYRO3) is reported as under 0.1 µM.

In the case of CCCCNc1ncc2c(n1)N([C@H]1CC[C@H](N)CC1)Cc1cc(CNC3CCOCC3)ccc1-2 [Example 10, 5-(trans-4-Aminocyclohexyl)-N-butyl-8-{[(tetrahydropyran-4-yl)amino]methyl}-5,6-dihydropyrimido[4,5-c]isoquinolin-3-amine], the IC50 (c-MER) is reported as under 0.1 µM and the IC50 (TYRO3) is reported as under 0.1 µM.

For CCCCNc1ncc2c3ccc(-c4c(F)cccc4F)cc3c(=O)n([C@H]3CC[C@H](O)CC3)c2n1 [Example 8, 3-(Butylamino)-8-(2,6-difluorophenyl)-5-(trans-4-hydroxycyclohexyl)pyrimido[4,5-c]isoquinolin-6(5H)-one], the IC50 (AXL) was over 1 µM, the IC50 (c-MER) was over 1 µM and the IC50 (TYRO3) was over 1 µM.

With CCCCNc1ncc2c(n1)N([C@H]1CC[C@H](O)CC1)Cc1cc(CN3CCOCC3)ccc1-2 [Example 1, trans-4-[3-(Butylamino)-8-(morpholin-4-ylmethyl)pyrimido[4,5-c]isoquinolin-5(6H)-yl]cyclohexanol] the IC50 (AXL) was over 1 µM.

CCCCNc1ncc2c3ccc(CNC4CCCCC4)cc3c(=O)n([C@H]3CC[C@H](O)CC3)c2n1 [Example 2, 3-(Butylamino)-8-[(cyclohexylamino)methyl]-5-(trans-4-hydroxycyclohexyl)pyrimido[4,5-c]isoquinolin-6(5H)-one] showed an IC50 (c-MER) of under 0.1 µM and an IC50 (TYRO3) of under 0.1 µM.

Work on CCCCNc1ncc2c(n1)N([C@H]1CC[C@H](N)CC1)Cc1cc(CNC3CCCCC3)ccc1-2 [Example 9, 5-(trans-4-Aminocyclohexyl)-N-butyl-8-[(cyclohexylamino)methyl]-5,6-dihydropyrimido [4,5-c]isoquinolin-3-amine] yielded an IC50 (AXL) of under 0.1 µM, an IC50 (c-MER) of under 0.1 µM and an IC50 (TYRO3) of under 0.1 µM.

CCCCNc1ncc2c3ccc(CNCCO)cc3c(=O)n([C@H]3CC[C@H](O)CC3)c2n1 [Example 5, 3-(Butylamino)-5-(trans-4-hydroxycyclohexyl)-8-{[(2-hydroxyethyl)amino]methyl}pyrimido [4,5-c]isoquinolin-6(5H)-one] gave an IC50 (AXL) of over 1 µM.
